Test results as given in article PMC7669869, “AdipoR1/AdipoR2 dual agonist recovers nonalcoholic steatohepatitis and related fibrosis via endoplasmic reticulum-mitochondria axis” (Nature Communications, 2020).
“And” between values parts separate entries of the source, which are not always exact repeats. Equal entries are not always repeated. Non-standard residues stand in square brackets, D forms with d. Residues, ends and D or L forms follow the SMILES beside them. Nva = CCC[C@H](N)C(=O)O

Tests used:
[1] = Serum stability assay (RP-HPLC); type: in vitro ADME; conditions: for Fraction of peptide remaining, Supplementary Figure 5: mouse serum
Procedure: The stability of candidate peptides was investigated following procedure. […] Ice-cold acetonitrile was added to terminate the reaction. Vortex and stand for 1 min, deionized water with 1% TFA was added to the mixture to further terminate the reaction. Mixtures were then centrifuged (13,000g, 10 min) to obtain the supernatant. RP-HPLC-MS was applied to analysis the content of candidate peptides. The serum stability of candidate peptides was represented as the retention rate of each peptide.

AdipoR1 [2] = biological target: T1, AdipoR1 (Homo sapiens, UniProt Q96A54); assay: HTRF binding, AdipoR1 overexpression HEK293 cells; conditions: in words
T1 construct: His; host or cells: HEK293
T1 sequence (Q96A54 1-375): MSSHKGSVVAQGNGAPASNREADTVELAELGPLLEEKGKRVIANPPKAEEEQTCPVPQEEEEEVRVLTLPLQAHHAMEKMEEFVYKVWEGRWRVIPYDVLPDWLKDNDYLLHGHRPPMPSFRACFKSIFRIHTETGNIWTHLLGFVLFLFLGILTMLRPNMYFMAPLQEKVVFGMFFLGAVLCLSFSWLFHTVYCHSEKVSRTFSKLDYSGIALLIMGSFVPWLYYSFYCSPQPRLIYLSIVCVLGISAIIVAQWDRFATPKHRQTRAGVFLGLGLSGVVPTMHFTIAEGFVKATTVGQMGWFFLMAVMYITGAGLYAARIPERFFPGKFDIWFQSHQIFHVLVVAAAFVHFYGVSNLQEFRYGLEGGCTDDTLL
Procedure: The expression plasmid of AdipoR1 and AdipoR2 were synthesized and codon optimized by Genescript (Nanjing, China) for their expression in HEK293 cell line. The concentration of FITC-JT003 was 0, 0.1, 0.25, 0.5, 1, 2.5 or 5 μM respectively. Unlabeled peptide JT003 was used as the control to measure the non-specific signal. 10E4 AdipoR1 and AdipoR2 overexpression cells, anti-His-Tb (ThermoFisher Scientific, USA) and JT003-FITC were added into a 384-well plate, with a total volume of 25μl. The mixtures were incubated at room temperature for 30 min in the dark. Fluorescent values at 520 nm and 620 nm were measured for Kd calculation.

AdipoR1 [3] = biological target: T1, AdipoR1; assay: Competition binding assay vs globular adiponectin (western blot), AdipoR1 overexpression cells; conditions: JT003 4 h, then 50 μg ml−1 gAd155–161 4 h, in words
Procedure: Different concentration of JT003 were incubated with AdipoR1 or AdipoR2 overexpression HEK293 cell line for 4 h. After that, 50 μg ml^−1 gAd155–161 were added for another 4 h incubation. The binding of gAd155–161 to the cells were measured via western blot assay.

HFD induced NASH mice [4] = assay: HFD mice: fasting blood glucose, fasting insulin and adiponectin (ELISA); type: in vivo, mouse; conditions: JT003 500 μg kg−1 i.p. daily 4 weeks, in words
Procedure: The NASH model was conducted with feeding a HFD for 16 weeks combine with a MCD diet (Methionine/Choline Deficient Diet, Medicience, China) in the last 4 weeks. Mice administered a MCS diet (Methionine/Choline Sufficient Diet, Medicience, China) serves as control group. NAFLD or NASH mice treated with JT003 for 4 weeks were used to evaluate the pharmacological effects (n = 6; 500 μg kg^−1; daily intraperitoneal injection). Food and water were provided ad libitum. The body weight of mice was examined every 3 days. The diet was renewed every 7 days. JT003 was diluted in PBS.
Fasting blood glucose was measured using OneTouch UltraVue Blood Glucose Meter and test strips (Johnson&Johnson, USA) from tail nicks. After HFD fed for 14 weeks and JT003 treated for 2 weeks, oral glucose tolerance tests were performed on 8 h fasted mice. 0.5 g ml^−1 D-glucose solution (Sigma-Aldrich, USA) were oral injected to mice (2 g kg^−1 of bodyweight), blood glucose level was recorded at baseline, 15, 30, 60, 120 min
The levels of ALT, AST, TC and TG in serum were determined using certain commercial assay kits (Nanjing Jiancheng Bioengineering Institute, China). Fasting adiponectin and insulin were quantified in plasma samples using corresponding commercially available Elisa kits (Cloud-Clone Crop, USA).

HFD induced NASH mice [5] = assay: HFD mice: insulin tolerance test (ITT); type: in vivo, mouse; conditions: JT003 500 μg kg−1, in words
Procedure: For insulin tolerance test, one week after OGTT assay, 6 h fasted mice were treated with JT003, and the baseline blood glucose level was measured. An hour later, 0.25 U kg^−1 insulin (Novolin R, Denmark) were intraperitoneal injection to mice, blood glucose level was measured at 15, 30, 45, 60 min

[6] = test system: CCl4 induced liver fibrosis mice; assay: CCl4 mice: apoptosis assay (TUNEL); type: in vivo, mouse; design: unit not given here; conditions: CCl4 + JT003 mice
Procedure: Male mice liver fibrosis was induced by intraperitoneal injection of 20% CCl4 (Sigma, USA) diluted in corn oil (Aladdin, China) every 3 days for 6 weeks (n = 6; 5 ml kg^−1 body weight). Mice injected with equivalent volume of corn oil serves as control group (n = 6). Liver fibrosis mice treated with JT003 for 3 weeks were used to evaluated the pharmacological effects (n = 6; 500 μg kg^−1; daily intraperitoneal injection).
TUNEL assay was performed using 5 μm liver sections and the apoptotic cells were identified using a Cell Death Detection kit (Beyotime Biotechnology, Shanghai, China). And then the slices were counterstained with DAPI (Life science, ThermoFisher Scientific, USA). Six random fields from 6 slides per mice were examined, and the TUNEL-positive red area within the slides were counted by two individuals who were blinded to the treatment.

[7] = test system: CCl4 induced liver fibrosis mice; assay: CCl4 mice: serum ALT, AST and liver HYP; type: in vivo, mouse; conditions: Figure 5b; CCl4 + JT003 group; single animals, n = 5

CCC[C@H](NC(=O)[C@@H]1CCCN1)C(=O)N[C@@H](CC(C)C)C(=O)N[C@@H](Cc1ccc(O)cc1)C(=O)N[C@@H](Cc1ccc(O)cc1)C(=O)N[C@@H](Cc1ccccc1)C(=O)N[C@@H](C)C(N)=O [JT003] (H-P[Nva]LYYFA-NH2)
Fraction of peptide remaining, Supplementary Figure 5 ([1]; time 0 (unit not given), replicate 1): 0.9904 | Fraction of peptide remaining, Supplementary Figure 5 ([1]; time 0 (unit not given), replicate 2): 1.127 | Fraction of peptide remaining, Supplementary Figure 5 ([1]; time 0 (unit not given), replicate 3): 0.9633 | Fraction of peptide remaining, Supplementary Figure 5 ([1]; time 1 (unit not given), replicate 2): 0.7303 | Fraction of peptide remaining, Supplementary Figure 5 ([1]; time 1 (unit not given), replicate 3): 0.7063 | Fraction of peptide remaining, Supplementary Figure 5 ([1]; time 2 (unit not given), replicate 1): 0.4963 | Fraction of peptide remaining, Supplementary Figure 5 ([1]; time 2 (unit not given), replicate 2): 0.5281 | Fraction of peptide remaining, Supplementary Figure 5 ([1]; time 2 (unit not given), replicate 3): 0.4921 | Fraction of peptide remaining, Supplementary Figure 5 ([1]; time 3 (unit not given), replicate 1): 0.4291 | Fraction of peptide remaining, Supplementary Figure 5 ([1]; time 3 (unit not given), replicate 2): 0.4706 | Fraction of peptide remaining, Supplementary Figure 5 ([1]; time 3 (unit not given), replicate 3): 0.4115 | Fraction of peptide remaining, Supplementary Figure 5 ([1]; time 4 (unit not given), replicate 1): 0.3431 | Fraction of peptide remaining, Supplementary Figure 5 ([1]; time 4 (unit not given), replicate 2): 0.3616 | Fraction of peptide remaining, Supplementary Figure 5 ([1]; time 4 (unit not given), replicate 3): 0.3877 | Fraction of peptide remaining, Supplementary Figure 5 ([1]; time 5 (unit not given), replicate 1): 0.4378 | Fraction of peptide remaining, Supplementary Figure 5 ([1]; time 5 (unit not given), replicate 2): 0.3169 | Fraction of peptide remaining, Supplementary Figure 5 ([1]; time 5 (unit not given), replicate 3): 0.3694 | Fraction of peptide remaining, Supplementary Figure 5 ([1]; time 6 (unit not given), replicate 1): 0.3549 | Fraction of peptide remaining, Supplementary Figure 5 ([1]; time 6 (unit not given), replicate 2): 0.2659 | Fraction of peptide remaining, Supplementary Figure 5 ([1]; time 6 (unit not given), replicate 3): 0.2904 | Fraction of peptide remaining, Supplementary Figure 5 ([1]; time 8 (unit not given), replicate 2): 0.272 | Fraction of peptide remaining, Supplementary Figure 5 ([1]; time 8 (unit not given), replicate 3): 0.2915 | Fraction of peptide remaining, Supplementary Figure 5 ([1]; time 12 (unit not given), replicate 2): 0.1256 | Fraction of peptide remaining, Supplementary Figure 5 ([1]; time 12 (unit not given), replicate 3): 0.2003 | remaining at 12 h, 5 mM ([1]; mouse, 5 mM peptide, 37 °C, 12 h, triplicate, mean, read-out: retention rate after incubation in serum): ~22% | Kd value for AdipoR1 compared to JT006 and ADP355 (AdipoR1 [2]): significantly lower Kd value | competitive binding to globular adiponectin, AdipoR1 overexpression cells (AdipoR1 [3]): more JT003 cause less globular adiponectin binding | HFD-induced increasing of fasting blood glucose and fasting serum insulin levels (HFD induced NASH mice [4]): decreased | decrease in circulating adiponectin in the HFD group (HFD induced NASH mice [4]): reverted remarkably | HFD-induced insulin resistance, insulin tolerance test (HFD induced NASH mice [5]): obviously ameliorated | TUNEL, Supplementary Figure 16 ([6]; replicate 1): 0.177 | TUNEL, Supplementary Figure 16 ([6]; replicate 2): 0.215 | TUNEL, Supplementary Figure 16 ([6]; replicate 3): 0.261 | TUNEL, Supplementary Figure 16 ([6]; replicate 4): 0.303 | TUNEL, Supplementary Figure 16 ([6]; replicate 5): 0.387 | TUNEL, Supplementary Figure 16 ([6]; replicate 6): 0.3 | TUNEL, Supplementary Figure 16 ([6]; replicate 7): 0.353 | TUNEL, Supplementary Figure 16 ([6]; replicate 8): 0.189 | TUNEL, Supplementary Figure 16 ([6]; replicate 9): 0.125 | TUNEL, Supplementary Figure 16 ([6]; replicate 10): 0.252 | alt Enzymatic Activity [7]: 182.294 U/L and 119.931 U/L and 31.0646 U/L and 95.3544 U/L and 50.0405 U/L
